Literature values as cited in patent US11859165B2, “Open-top microfluidic device with structural anchors” (EMULATE, INC., priority 2015, dated 2024).

Test system: cell monolayers with tight junctions
Details: passive paracellular diffusion across cell monolayers; value reported to be indicative of well-established monolayers

- Permeability (Papp) for LY: 5 to 12 nm/s
Substance: Lucifer Yellow
